In patent publication US20090068290A1, “BIFEPRUNOX DOSES FOR TREATING SCHIZOPHRENIA” (priority 2006, published 2009):

Columns and labels:
Type in all cases: in vivo, human
[1] = test system: adult subjects with schizophrenia; assay: SAS, BAS and AIMS movement scales, Clinical Study Two
Procedure: Pharmacokinetic (PK) data of bifeprunox in schizophrenic subjects were also assessed and are presented in a separate report (combined with data from study S1543003).
The SAS is used to measure Parkinsonian-type symptoms in patients exposed to antipsychotics. The scale consists of 10 items, each rated on a 5-point scale ranging from 0 (complete absence of the condition) to 4 (presence of the condition in extreme form). The SAS total score is defined as the sum of all item scores, and the range is 0 to 40. A SAS total score of up to 3 is considered normal.
The BAS is used to rate observable, restless movements of drug-induced akathisia as well as the subjective awareness of restlessness and any distress associated with the akathisia. The scale consists of 3 items that is rated from 0 (no evidence of akathisia) to 3 (severe akathisia). The BAS total score is defined as the sum of the these three BAS item scores and ranges from is 0 to 9. In addition, a global clinical assessment of akathisia is rated from 0 (no evidence of akathisia) to 5 (severe akathisia).
The AIMS, designed to record the occurrence of dyskinetic movements, consists of 12 items. Items 1 to 7 measure specific involuntary movements on a scale from 0 (none) to 4 (severe). Items 8 to 10 measure global assessment of abnormal movement on a scale from 0 (no awareness) to 4 (aware, severe distress). Items 11 and 12 are questions regarding the dental condition of the patient, with yes/no answers. The total score is calculated by summing AIMS items 1 through 10 and ranges from 0 to 40; the non-global total score is calculated by summing items 1 through 7.

[2] = test system: adult subjects with schizophrenia; assay: BPRS total score, Clinical Study One; conditions: ITT population
Procedure: There were five treatment groups in this study. […] Study medication was administered once daily. After Baseline measurements were performed, the titration phase was begun. Bifeprunox treated subjects were titrated up to 5 mg, 10 mg or 20 mg according to a standardized titration schedule (Day 1: 0.125 mg, Day 2: 0.25 mg, Day 3: 0.5 mg, Day 4: 1.0 mg, Day 5: 2.0 mg, Day 6: 5.0 mg, Day 7: 10.0 mg, Day 8: 20 mg). When the assigned dose was reached, subjects were maintained at that dose for the remainder of the six-week treatment period.
The change in the Positive and Negative Symptom Scale (PANSS) total score, from baseline to endpoint, was the primary outcome measure. Secondary efficacy measures included: PANSS positive, PANSS negative, PANSS general psychopathology (GPP) score, PANSS-derived Brief Psychiatric Rating Scale (BPRS) score, Clinical Global Impressions-Severity of Illness (CGI-S), CGI-Improvement (CGI-I) scores, and responder rates. Safety and tolerability evaluations included extrapyramidal symptoms (EPS), weight gain, lipid profile, and serum prolactin.

[3] = test system: adult subjects with schizophrenia; assay: Adverse events (TEAE, SAE, discontinuation, EPS-related TEAE, anticholinergic use), Clinical Study One
Procedure: METHODOLOGY: This was a randomized, double-blind, fixed-dose, placebo-controlled, risperidone-referenced, parallel group, multi-center study in adult subjects with schizophrenia. There were five treatment groups in this study. […] Study medication was administered once daily. After Baseline measurements were performed, the titration phase was begun. Bifeprunox treated subjects were titrated up to 5 mg, 10 mg or 20 mg according to a standardized titration schedule (Day 1: 0.125 mg, Day 2: 0.25 mg, Day 3: 0.5 mg, Day 4: 1.0 mg, Day 5: 2.0 mg, Day 6: 5.0 mg, Day 7: 10.0 mg, Day 8: 20 mg).

[4] = Bifeprunox 10 mg, Endpoint LOCF
[5] = Bifeprunox 20 mg, Endpoint LOCF

SMILES: O=c1[nH]c2cccc(N3CCN(Cc4cccc(-c5ccccc5)c4)CC3)c2o1 [Bifeprunox, 7-[4-([1,1′-biphenyl]-3-ylmethyl)-1-piperazinyl]-2(3H)-benzoxazolone]
- SAS shifts from normal at Baseline to abnormal at Endpoint ([1]; Bifeprunox 30 mg): < 1%
- SAS shifts from normal at Baseline to abnormal at Endpoint ([1]; Bifeprunox 40 mg): 4%
- subjects with abnormal SAS scores at Endpoint ([1]; Bifeprunox 40 mg): 7%
- Change from Baseline in BPRS Total Score, Mean (S.D.) ([2]; Bifeprunox 5 mg, Endpoint LOCF): −6.2 (10.5)
- Change from Baseline in BPRS Total Score, Median ([2]; Bifeprunox 5 mg, Endpoint LOCF): −5
- Change from Baseline in BPRS Total Score, Trt Effect (bifeprunox—placebo) ([2]; Bifeprunox 5 mg, Endpoint LOCF): −2.4
- Change from Baseline in BPRS Total Score, Mean (S.D.) ([2]; Bifeprunox 5 mg, Week 1, LOCF): −2.4 (7.5)
- Change from Baseline in BPRS Total Score, Median ([2]; Bifeprunox 5 mg, Week 1, LOCF): −3
- Change from Baseline in BPRS Total Score, Mean (S.D.) ([2]; Bifeprunox 5 mg, Week 2, LOCF): −4.2 (8.6)
- Change from Baseline in BPRS Total Score, Median ([2]; Bifeprunox 5 mg, Week 2, LOCF): −4
- Change from Baseline in BPRS Total Score, Mean (S.D.) ([2]; Bifeprunox 5 mg, Week 3, LOCF): −5.2 (9.7)
- Change from Baseline in BPRS Total Score, Median ([2]; Bifeprunox 5 mg, Week 3, LOCF): −5
- Change from Baseline in BPRS Total Score, Mean (S.D.) ([2]; Bifeprunox 5 mg, Week 4, LOCF): −5.6 (10.2)
- Change from Baseline in BPRS Total Score, Median ([2]; Bifeprunox 5 mg, Week 4, LOCF): −5
- Change from Baseline in BPRS Total Score, Mean (S.D.) [2, 4]: −3.4 (11.5)
- Change from Baseline in BPRS Total Score, Median [2, 4]: −2
- Change from Baseline in BPRS Total Score, Trt Effect (bifeprunox—placebo) [2, 4]: −0.6
- Change from Baseline in BPRS Total Score, Mean (S.D.) ([2]; Bifeprunox 10 mg, Week 1, LOCF): −2.0 (7.2)
- Change from Baseline in BPRS Total Score, Median ([2]; Bifeprunox 10 mg, Week 1, LOCF): −1
- Change from Baseline in BPRS Total Score, Mean (S.D.) ([2]; Bifeprunox 10 mg, Week 2, LOCF): −3.1 (9.3)
- Change from Baseline in BPRS Total Score, Median ([2]; Bifeprunox 10 mg, Week 2, LOCF): −3
- Change from Baseline in BPRS Total Score, Mean (S.D.) ([2]; Bifeprunox 10 mg, Week 3, LOCF): −3.3 (10.9)
- Change from Baseline in BPRS Total Score, Median ([2]; Bifeprunox 10 mg, Week 3, LOCF): −2
- Change from Baseline in BPRS Total Score, Mean (S.D.) ([2]; Bifeprunox 10 mg, Week 4, LOCF): −3.1 (10.7)
- Change from Baseline in BPRS Total Score, Median ([2]; Bifeprunox 10 mg, Week 4, LOCF): −3
- Change from Baseline in BPRS Total Score, Mean (S.D.) [2, 5]: −7.6 (10.1)
- Change from Baseline in BPRS Total Score, Median [2, 5]: −8
- Change from Baseline in BPRS Total Score, Trt Effect (bifeprunox—placebo) [2, 5]: −3.5
- Change from Baseline in BPRS Total Score, Mean (S.D.) ([2]; Bifeprunox 20 mg, Week 1, LOCF): −4.3 (7.3)
- Change from Baseline in BPRS Total Score, Median ([2]; Bifeprunox 20 mg, Week 1, LOCF): −3
- Change from Baseline in BPRS Total Score, Mean (S.D.) ([2]; Bifeprunox 20 mg, Week 2, LOCF): −6.1 (8.8)
- Change from Baseline in BPRS Total Score, Median ([2]; Bifeprunox 20 mg, Week 2, LOCF): −7
- Change from Baseline in BPRS Total Score, Mean (S.D.) ([2]; Bifeprunox 20 mg, Week 3, LOCF): −7.5 (9.1)
- Change from Baseline in BPRS Total Score, Median ([2]; Bifeprunox 20 mg, Week 3, LOCF): −8
- Change from Baseline in BPRS Total Score, Mean (S.D.) ([2]; Bifeprunox 20 mg, Week 4, LOCF): −7.7 (9.7)
- Change from Baseline in BPRS Total Score, Median ([2]; Bifeprunox 20 mg, Week 4, LOCF): −8
- TEAE Akathisia, % ([3]; 5 mg, Safety Population): (<1%)
- TEAE Benign Skin Neoplasm Nos, % ([3]; 5 mg, Safety Population): (<1%)
- TEAE Muscle Stiffness, % ([3]; 5 mg, Safety Population): (<1%)
- TEAE Muscle Tightness, % ([3]; 5 mg, Safety Population): (<1%)
- TEAE Muscle Twitching, % ([3]; 5 mg, Safety Population): (2%)
- TEAE NEOPLASMS BENIGN, MALIGNANT AND UNSPECIFIED (INCL CYSTS AND POLYPS), % ([3]; 5 mg, Safety Population): (2%)
- TEAE NERVOUS SYSTEM DISORDERS, % ([3]; 5 mg, Safety Population): (48%)
- TEAE Neck Pain, % ([3]; 5 mg, Safety Population): (<1%)
- TEAE Pain in Jaw, % ([3]; 5 mg, Safety Population): (<1%)
- TEAE Pain in Limb, % ([3]; 5 mg, Safety Population): (<1%)
- TEAE Skin Papilloma, % ([3]; 5 mg, Safety Population): (<1%)
- TEAE Akathisia, % ([3]; 10 mg, Safety Population): (2%)
- TEAE Muscle Stiffness, % ([3]; 10 mg, Safety Population): (<1%)
- TEAE Muscle Twitching, % ([3]; 10 mg, Safety Population): (<1%)
- TEAE Musculoskeletal Discomfort, % ([3]; 10 mg, Safety Population): (<1%)
- TEAE Myalgia, % ([3]; 10 mg, Safety Population): (<1%)
- TEAE NERVOUS SYSTEM DISORDERS, % ([3]; 10 mg, Safety Population): (50%)
- TEAE Neck Pain, % ([3]; 10 mg, Safety Population): (3%)
- TEAE Pain in Jaw, % ([3]; 10 mg, Safety Population): (<1%)
- TEAE Pain in Limb, % ([3]; 10 mg, Safety Population): (2%)
- TEAE Akathisia, % ([3]; 20 mg, Safety Population): (3%)
- TEAE Muscle Spasms, % ([3]; 20 mg, Safety Population): (2%)
- TEAE Muscle Twitching, % ([3]; 20 mg, Safety Population): (<1%)
- TEAE Myalgia, % ([3]; 20 mg, Safety Population): (<1%)
- TEAE NERVOUS SYSTEM DISORDERS, % ([3]; 20 mg, Safety Population): (43%)
- TEAE Neck Pain, % ([3]; 20 mg, Safety Population): (2%)
- TEAE Pain in Limb, % ([3]; 20 mg, Safety Population): (3%)
- TEAE Sensation of Heaviness, % ([3]; 20 mg, Safety Population): (<1%)
- Acute Psychosis, % ([3]; BX 5 mg): (<1%)
- Aggression, % ([3]; BX 5 mg): (<1%)
- Agitation Aggravated, % ([3]; BX 5 mg): (4%)
- Agitation, % ([3]; BX 5 mg): (11%)
